Tested on: patients with treatment-resistant depression (TRD)
Assay: MADRS total score, phase 2 doubly-randomized dose-response study in TRD (NCT01998958)
Assay type: in vivo, human
Conditions: for MADRS total score, Mean difference placebo: Period 1 and Period 2 Combined; for MADRS total score: LS mean difference vs placebo, range over esketamine dose groups / Proportion of responders (≥50% improvement in MADRS total score) / Remission (MADRS total score ≤10) / MADRS total score: treatment difference relative to placebo: phase 2; for MADRS total score: LS mean difference vs placebo, range over esketamine dose groups: 28, 56, 84 mg; for Proportion of responders (≥50% improvement in MADRS total score): Period 2 endpoint; for Remission (MADRS total score ≤10): after 2 weeks; for MADRS total score: treatment difference relative to placebo: day 15
Excerpt: In Panel A, reported here, 14 study sites (13 in US, 1 in Belgium) enrolled participants into the study. The study consisted of four phases: 1) screening, 2) double-blind treatment (days 1 to 15), comprised of two 1-week periods (Period 1, Period 2), 3) optional open-label treatment (days 15 to 74) with tapering of intranasal dosing frequency, and 4) post-treatment follow-up (8 weeks). Based on prior studies of ketamine where efficacy was reported after 1-2 doses, the duration of each period in the double-blind phase was 1 week, during which time it was expected that efficacy could be achieved. This design allowed evaluation of the dose(s) needed to proceed to evaluation in phase 3. The purpose of the open-label flexible-dose phase was to evaluate the impact of less frequent dosing on sustaining efficacy.
At the beginning of double-blind Period 1, eligible participants were randomized (3:1:1:1) to intranasal placebo or esketamine 28, 56, or 84 mg, twice weekly (days 1 and 4) based on the first of two computer-generated randomization schedules (Period 1 and Period 2). Randomization was balanced by using randomly permuted blocks and stratified by study center. At the end of Period 1, those randomized to placebo who had moderate-to-severe symptoms (assessed by Quick Inventory of Depressive Symptomatology-Self Report (Trivedi 2016 and Rush, “The 16-item Quick Inventory of Depressive Symptomatology (QIDS) Clinician Rating (QIDS-C) and Self-Report (QIDS-SR): A psychometric evaluation in patients with chronic major depression”, Biol. Psychiatry, 2003, 54(5):573-583) [QIDS-SR16] total score: moderate, 11-16; severe, >16) were re-randomized (1:1:1:1) to intranasal esketamine 28, 56, or 84 mg or placebo, twice weekly (days 8 and 11), while those having mild or no symptoms continued on placebo. To maintain the blind, all participants completed an identical process prior to entry into Period 2, whether or not they were re-randomized. Regardless of response in the double-blind phase, all participants were eligible to enter the optional open-label phase. Esketamine (56 mg) was administered on the first day of the open-label phase (study day 15); subsequent doses could be adjusted (range: 28 to 84 mg) based on investigator's clinical judgment, with administration twice weekly for first 2 weeks, weekly for next 3 weeks, then every 2 weeks thereafter.
Efficacy was assessed with the Montgomery-Asberg Depression Rating Scale (MADRS; Montgomery, “A new depression scale designed to be sensitive to change”, Br. J. Psychiatry, 1979, 134:382-389; Williams, “Development and reliability of a structured interview guide for the Montgomery Asberg Depression Rating Scale (SIGMA)”, Br. J. Psychiatry, 2008, 192(1):52-58) on days 1 (pre-dose and 2 hour post-dose), 2, 8 (pre-dose), 9, and 15, using the structured interview guide (SIGMA). See, Williams 2008.
Efficacy data were analyzed in intent-to-treat (ITT) analysis sets for each period and phase. The ITT analysis sets included all participants who received at least 1 dose of study medication during that period or phase and had baseline and at least one post-baseline MADRS total score within that period or phase.
The primary efficacy endpoint—change from baseline (pre-dose, day 1 in each period) to endpoint (day 8 in each period) in MADRS total score—was analyzed using the analysis of covariance (ANCOVA) model. For Period 1, the model included treatment and country as factors, and baseline MADRS total score as covariate. For Period 2, the model included treatment and country as factors, Period 2 baseline QIDS-SR16 score (moderate or severe), and Period 2 baseline MADRS total score as a continuous covariate.
Given the consistency between Periods 1 and 2 results (Chi 2016), esketamine dose groups were compared to placebo using a combined test on the weighted test statistics for each period in the double-blind treatment phase. […]

[1] = OL endpoint-day 74, Esketamine/Esketamine/OL Esketamine
[2] = OL endpoint-day 74, Placebo/Esketamine/OL Esketamine
[3] = OL endpoint-day 74, Placebo/Placebo/OL Esketamine
[4] = Period 1, 2 hours, esketamine 28 mg
[5] = Period 1, 2 hours, esketamine 56 mg
[6] = Period 1, 2 hours, esketamine 84 mg
[7] = Period 1, 24 hours, esketamine 28 mg
[8] = Period 1, 24 hours, esketamine 56 mg
[9] = Period 1, 24 hours, esketamine 84 mg
[10] = Period 1, study period endpoint (day 8), esketamine 28 mg
[11] = Period 1, study period endpoint (day 8), esketamine 56 mg
[12] = Period 1, study period endpoint (day 8), esketamine 84 mg
[13] = Period 2 (placebo nonresponsive participants re-randomized), 2 hours, esketamine 28 mg
[14] = Period 2 (placebo nonresponsive participants re-randomized), 2 hours, esketamine 56 mg
[15] = Period 2 (placebo nonresponsive participants re-randomized), 2 hours, esketamine 84 mg
[16] = Period 2 (placebo nonresponsive participants re-randomized), 24 hours, esketamine 28 mg
[17] = Period 2 (placebo nonresponsive participants re-randomized), 24 hours, esketamine 56 mg
[18] = Period 2 (placebo nonresponsive participants re-randomized), 24 hours, esketamine 84 mg
[19] = Period 2 (placebo nonresponsive participants re-randomized), study period endpoint (day 15), esketamine 28 mg
[20] = Period 2 (placebo nonresponsive participants re-randomized), study period endpoint (day 15), esketamine 56 mg
[21] = Period 2 (placebo nonresponsive participants re-randomized), study period endpoint (day 15), esketamine 84 mg
[22] = Week 8 (Follow-up), Esketamine/Esketamine/OL Esketamine
[23] = Week 8 (Follow-up), Placebo/Esketamine/OL Esketamine
[24] = Week 8 (Follow-up), Placebo/Placebo/OL Esketamine

Structure (SMILES): CN[C@]1(c2ccccc2Cl)CCCCC1=O [esketamine, (S)-2-(2-chlorophenyl)-2-(methylamino)cyclohexanone]
- Remission Rate, No, % [1]: 72.2%
- Remission Rate, Yes, % [1]: 27.8%
- Response Rate, ≥50% improvement, % [1]: 61.1%
- Remission Rate, No, % [2]: 60.0%
- Remission Rate, Yes, % [2]: 40.0%
- Response Rate, ≥50% improvement, % [2]: 50.0%
- Remission Rate, No, % [3]: 66.7%
- Remission Rate, Yes, % [3]: 33.3%
- Response Rate, ≥50% improvement, % [3]: 100%
- Remission Rate, No, % (OL endpoint-day 74, Total): 67.6%
- Remission Rate, Yes, % (OL endpoint-day 74, Total): 32.4%
- Response Rate, ≥50% improvement, % (OL endpoint-day 74, Total): 64.7%
- MADRS total score, LS mean change [4]: −16.4
- MADRS total score, LS mean difference placebo [4]: −6.7
- Remitters, % [4]: (27.3) %
- Responders, % [4]: (54.5) %
- MADRS total score, LS mean change [5]: −14.3
- MADRS total score, LS mean difference placebo [5]: −4.6
- Remitters, % [5]: (18.2) %
- Responders, % [5]: (36.4) %
- MADRS total score, LS mean change [6]: −17.6
- MADRS total score, LS mean difference placebo [6]: −7.9
- Remitters, % [6]: (25.0) %
- Responders, % [6]: (58.3) %
- MADRS total score, LS mean change [7]: −14.8
- MADRS total score, LS mean difference placebo [7]: −9.1
- Remitters, % [7]: (36.4) %
- Responders, % [7]: (36.4) %
- MADRS total score, LS mean change [8]: −15.7
- MADRS total score, LS mean difference placebo [8]: −10.0
- Remitters, % [8]: (18.2) %
- Responders, % [8]: (27.3) %
- MADRS total score, LS mean change [9]: −16.4
- MADRS total score, LS mean difference placebo [9]: −10.7
- Remitters, % [9]: (25.0) %
- Responders, % [9]: (41.7) %
- MADRS total score, LS mean change [10]: −9.8
- MADRS total score, LS mean difference placebo [10]: −5.0
- Remitters, % [10]: (9.1) %
- Responders, % [10]: (9.1) %
- MADRS total score, LS mean change [11]: −12.4
- MADRS total score, LS mean difference placebo [11]: −7.6
- Remitters, % [11]: (9.1) %
- Responders, % [11]: (18.2) %
- MADRS total score, LS mean change [12]: −15.3
- MADRS total score, LS mean difference placebo [12]: −10.5
- Remitters, % [12]: (25.0) %
- Responders, % [12]: (41.7) %
- MADRS total score, Mean difference placebo (esketamine 28 mg): −4.2
- MADRS total score, Mean difference placebo (esketamine 56 mg): −6.3
- MADRS total score, Mean difference placebo (esketamine 84 mg): −9.0
- MADRS total score, LS mean change [13]: −10.3
- MADRS total score, LS mean difference placebo [13]: −3.5
- Remitters, % [13]: (12.5) %
- Responders, % [13]: (12.5) %
- MADRS total score, LS mean change [14]: −11.7
- MADRS total score, LS mean difference placebo [14]: −4.9
- Responders, % [14]: (22.2) %
- MADRS total score, LS mean change [15]: −11.6
- MADRS total score, LS mean difference placebo [15]: −4.9
- Remitters, % [15]: (40.0) %
- Responders, % [15]: (40.0) %
- MADRS total score, LS mean change [16]: −8.9
- MADRS total score, LS mean difference placebo [16]: −4.8
- MADRS total score, LS mean change [17]: −10.2
- MADRS total score, LS mean difference placebo [17]: −6.1
- Responders, % [17]: (11.1) %
- MADRS total score, LS mean change [18]: −11.6
- MADRS total score, LS mean difference placebo [18]: −7.5
- Remitters, % [18]: (20.0) %
- Responders, % [18]: (40.0) %
- MADRS total score, LS mean change [19]: −7.6
- MADRS total score, LS mean difference placebo [19]: −3.1
- Remitters, % [19]: (12.5) %
- Responders, % [19]: (12.5) %
- MADRS total score, LS mean change [20]: −8.9
- MADRS total score, LS mean difference placebo [20]: −4.4
- MADRS total score, LS mean change [21]: −11.4
- MADRS total score, LS mean difference placebo [21]: −6.9
- Remitters, % [21]: (20.0) %
- Responders, % [21]: (20.0) %
- Remission Rate, No, % [22]: 54.5%
- Remission Rate, Yes, % [22]: 45.5%
- Response Rate, ≥50% improvement, % [22]: 68.2%
- Remission Rate, No, % [23]: 75.0%
- Remission Rate, Yes, % [23]: 25.0%
- Response Rate, ≥50% improvement, % [23]: 25.0%
- Remission Rate, No, % [24]: 42.9%
- Remission Rate, Yes, % [24]: 57.1%
- Response Rate, ≥50% improvement, % [24]: 71.4%
- Remission Rate, No, % (Week 8 (Follow-up), Total): 58.5%
- Remission Rate, Yes, % (Week 8 (Follow-up), Total): 41.5%
- Response Rate, ≥50% improvement, % (Week 8 (Follow-up), Total): 56.1%
- MADRS total score: LS mean difference vs placebo, range over esketamine dose groups (Period 1 (baseline to day 8)): −5.0 to −10.5
- MADRS total score: LS mean difference vs placebo, range over esketamine dose groups (Period 2 (day 8 to day 15)): −3.1 to −6.9
- Proportion of responders (≥50% improvement in MADRS total score) (28 mg): 37.5%
- Proportion of responders (≥50% improvement in MADRS total score) (56 mg): 36.4%
- Proportion of responders (≥50% improvement in MADRS total score) (84 mg): 50.0%
- Remission (MADRS total score ≤10) (28 mg): 12.5%
- Remission (MADRS total score ≤10) (56 mg): 27.3%
- Remission (MADRS total score ≤10) (84 mg): 40.0%
- MADRS total score: treatment difference relative to placebo (completers with same treatment 2 weeks, 84 mg): −12.5
- MADRS total score: treatment difference relative to placebo (completers, 28 mg): −6.0
- MADRS total score: treatment difference relative to placebo (completers, 56 mg): −8.3

— patent publication US20230121313A1 (priority 2019, published 2023)
